This note sets out measurements from KR20130112248A, “피라졸로피리미딘 유도체 화합물, 이를 포함하는 산화질소 생성 억제용 조성물 및 뇌신경 질환 예방 및 치료용 약학적 조성물” (한국과학기술연구원, priority 2012, dated 2013).

The test system of this assay is NO production in BV-2 cells [NO 생성; BV-2 세포]. The experiment in a line: Nitric oxide (NO) quantification (nitrite, Griess reaction) in LPS-activated BV-2 cells. In kind it is cell-based. Particulars: 20 μM, LPS 0.2 ㎍/mL, 24 h co-treatment, nitrite by Griess at 540 nm; for NO (% of LPS): 1440 min; for activity at 20 µM: Mus musculus, BV-2, 24 h. (In general: The Griess reaction detects nitrite, a stable product of nitric oxide.)

With `CSc1nc(N[C@H](C)c2ccccc2)c2cnn(C(C)(C)C)c2n1` [화합물 17g, (R)-1-t-뷰틸-4-(1-페닐에틸)아미노-6-(메틸티오)피라졸로[3,4-d]피리미딘], the “NO (% of LPS)” value was 42±18 % of LPS.

Take `CSc1nc(NCCc2ccccc2)c2cnn(C(C)(C)C)c2n1` [화합물 17h, 1-t-뷰틸-4-(2-페닐에틸)아미노-6-(메틸티오)피라졸로[3,4-d]피리미딘]: the activity at 20 µM worked out at 61 ± 1%.

Turning to `COc1ccccc1CNc1nc(SC)nc2c1cnn2C(C)(C)C` [화합물 17i, N-(2-메톡시벤질)-1-t-뷰틸-6-(methylthio)-1H-피라졸로[3,4-d]피리미딘-4-아민], the activity at 20 µM is 45 ± 5.9%.

As for `CSc1nc(NCc2ccc(Cl)cc2)c2cnn(C(C)(C)C)c2n1` [화합물 17j, N-(4-클로로벤질)-1-t-뷰틸-6-(methylthio)-1H-피라졸로[3,4-d]피리미딘-4-아민], the activity at 20 µM stood at 19 ± 3.9%.

With `COc1cccc(CNc2nc(SC)nc3c2cnn3C(C)(C)C)c1` [화합물 17k, N-(3-메톡시벤질)-1-t-뷰틸-6-(methylthio)-1H-피라졸로[3,4-d]피리미딘-4-아민], the activity at 20 µM is 51 ± 5%.

Take `CCCCNc1nc(SC)nc2c1cnn2C(C)(C)C` [화합물 17l, 1-t-뷰틸-N-뷰틸-6-(메틸티오)-1H-피라졸로[3,4-d]피리미딘-4-아민]: the activity at 20 µM amounted to 82 ± 9.5%.

For `CSc1nc(NCc2ccccn2)c2cnn(C(C)(C)C)c2n1` [화합물 17m, 1-t-뷰틸-6-(메틸티오)-N-((피리딘-2-일)메틸)-1H-피라졸로[3,4-d]피리미딘-4-아민], the activity at 20 µM came to 92 ± 6.6%.

For the molecule `CSc1nc(NCc2ccccc2Cl)c2cnn(C(C)(C)C)c2n1` [화합물 17n, N-(2-클로로벤질)-1-t-뷰틸-6-(메틸티오)-1H-피라졸로[3,4-d]피리미딘-4-아민], the activity at 20 µM amounted to 38 ± 2.9%.

Consider `CSc1nc(NC(C)(C)CO)c2cnn(C(C)(C)C)c2n1` [화합물 17o, 2-(1-t-뷰틸-6-(메틸티오)-1H-피라졸로[3,4-d]피리미딘-4-일아미노)-2-메틸프로판-1-올], for which the activity at 20 µM turned out to be 73.6 ± 2.4%.

Regarding `COc1cccc(CCn2ncc3c(NCc4ccccc4Cl)nc(SC)nc32)c1` [화합물 18a, N-(2-클로로벤질)-1-(3-메톡시펜에틸)-6-(메틸티오)-1H-피라졸로[3,4-d]피리미딘-4-아민], the activity at 20 µM was found to be 43 ± 18.1%.

Take `COc1cccc(CCn2ncc3c(NCc4ccccc4OC)nc(SC)nc32)c1` [화합물 18b, N-(2-메톡시벤질)-1-(3-메톡시펜에틸)-6-(메틸티오)-1H-피라졸로[3,4-d]피리미딘-4-아민]: the activity at 20 µM was determined as 37 ± 17.6%.

As for `COc1cccc(CCn2ncc3c(NCc4ccccc4C)nc(SC)nc32)c1` [화합물 18c, N-(2-메틸벤질)-1-(3-메톡시펜에틸)-6-(메틸티오)-1H-피라졸로[3,4-d]피리미딘-4-아민], the activity at 20 µM is 37 ± 7.9%.

As to `COc1cccc(CCn2ncc3c(NCc4cccc(OC)c4)nc(SC)nc32)c1` [화합물 18d, N-(3-메톡시벤질)-1-(3-메톡시펜에틸)-6-(메틸티오)-1H-피라졸로[3,4-d]피리미딘-4-아민], the activity at 20 µM came out at 39 ± 4.8%.

`COc1ccc(CNc2nc(SC)nc3c2cnn3CCc2cccc(OC)c2)cc1` [화합물 18e, 1-(3-메톡시펜에틸)-N-(4-메톡시벤질)-6-(메틸티오)-1H-피라졸로[3,4-d]피리미딘-4-아민]: the activity at 20 µM worked out at 44 ± 1.3%.

As to `COc1cccc(CCn2ncc3c(NCc4ccc(C)cc4)nc(SC)nc32)c1` [화합물 18f, 1-(3-메톡시펜에틸)-N-(4-메틸벤질)-6-(메틸티오)-1H-피라졸로[3,4-d]피리미딘-4-아민], the activity at 20 µM came to 56 ± 3.1%.

Turning to `COc1cccc(CCn2ncc3c(NCc4ccc(F)cc4)nc(SC)nc32)c1` [화합물 18g, 1-(3-메톡시펜에틸)-N-(4-플루오로벤질)-6-(메틸티오)-1H-피라졸로[3,4-d]피리미딘-4-아민], the activity at 20 µM came out at 58 ± 4.8%.

For `COc1cccc(CCn2ncc3c(NCc4ccccc4)nc(SC)nc32)c1` [화합물 18h, 1-(3-메톡시펜에틸)-N-벤질-6-(메틸티오)-1H-피라졸로[3,4-d]피리미딘-4-아민], the activity at 20 µM is 56 ± 3.1%.

In the case of `C=CCNc1nc(SC)nc2c1cnn2CCc1cccc(OC)c1` [화합물 18i, 1-(3-메톡시펜에틸)-N-알릴-6-(메틸티오)-1H-피라졸로[3,4-d]피리미딘-4-아민], the activity at 20 µM was 78 ± 4.4%.

As for `COc1cccc(CNc2nc(SC)nc3c2cnn3CCc2ccccc2OC)c1` [화합물 19a, 1-(2-메톡시펜에틸)-N-(3-메톡시벤질)-6-(메틸티오)-1H-피라졸로[3,4-d]피리미딘-4-아민], the activity at 20 µM came out at 32 ± 1.1%.

As to `COc1ccc(CNc2nc(SC)nc3c2cnn3CCc2ccccc2OC)cc1` [화합물 19b, 1-(2-메톡시펜에틸)-N-(4-메톡시벤질)-6-(메틸티오)-1H-피라졸로[3,4-d]피리미딘-4-아민], the activity at 20 µM was determined as 27 ± 6.8%.

As to `COc1ccccc1CCn1ncc2c(NCc3ccc(F)cc3)nc(SC)nc21` [화합물 19d, 1-(2-메톡시펜에틸)-N-(4-플루오로벤질)-6-(메틸티오)-1H-피라졸로[3,4-d]피리미딘-4-아민], the activity at 20 µM is 40 ± 1.1%.

Turning to `COc1ccccc1CCn1ncc2c(NCc3ccccc3)nc(SC)nc21` [화합물 19e, 1-(2-메톡시펜에틸)-N-벤질-6-(메틸티오)-1H-피라졸로[3,4-d]피리미딘-4-아민], the activity at 20 µM was 60 ± 5.9%.

With `C=CCNc1nc(SC)nc2c1cnn2CCc1ccccc1OC` [화합물 19f, 1-(2-메톡시펜에틸)-N-알릴-6-(메틸티오)-1H-피라졸로[3,4-d]피리미딘-4-아민], the activity at 20 µM was 75 ± 8.7%.

As for `COc1ccccc1CCn1ncc2c(NCc3ccccc3C)nc(SC)nc21` [화합물 19g, N-(2-메톡시벤질)-1-(2-메톡시펜에틸)-6-(메틸티오)-1H-피라졸로[3,4-d]피리미딘-4-아민], the activity at 20 µM was 27.4 ± 0.7%.

With `COc1ccccc1CCn1ncc2c(NCc3ccccc3Cl)nc(SC)nc21` [화합물 19h, N-(2-클로로벤질)-1-(2-메톡시펜에틸)-6-(메틸티오)-1H-피라졸로[3,4-d]피리미딘-4-아민], the activity at 20 µM is 18 ± 1.2%.

For `COc1ccccc1CCn1ncc2c(NCc3ccccc3OC)nc(SC)nc21` [화합물 19i, N-(2-메톡시벤질)-1-(2-메톡시펜에틸)-6-(메틸티오)-1H-피라졸로[3,4-d]피리미딘-4-아민], the activity at 20 µM came to 23.1 ± 0.5%.

`CSc1nc(NCc2ccccc2Cl)c2cnn(-c3ccc(F)cc3)c2n1` [화합물 20a, N-(2-클로로벤질)-1-(4-플루오로페닐)-6-(메틸티오)-1H-피라졸로[3,4-d]피리미딘-4-아민]: the activity at 20 µM was 48 ± 17.2%.

Consider `COc1ccccc1CNc1nc(SC)nc2c1cnn2-c1ccc(F)cc1` [화합물 20b, N-(2-메톡시벤질)-1-(4-플루오로페닐)-6-(메틸티오)-1H-피라졸로[3,4-d]피리미딘-4-아민], for which the activity at 20 µM is 48 ± 27.1%.

`CSc1nc(NCc2ccccc2C)c2cnn(-c3ccc(F)cc3)c2n1` [화합물 20c, N-(2-메틸벤질)-1-(4-프루오로페닐)-6-(메틸티오)-1H-피라졸로[3,4-d]피리미딘-4-아민]: the activity at 20 µM stood at 47 ± 8%.

Take `COc1cccc(CNc2nc(SC)nc3c2cnn3-c2ccc(F)cc2)c1` [화합물 20d, N-(3-메톡시벤질)-1-(4-플루오로페닐)-6-(메틸티오)-1H-피라졸로[3,4-d]피리미딘-4-아민]: the activity at 20 µM worked out at 43 ± 5.9%.

Take `COc1ccc(CNc2nc(SC)nc3c2cnn3-c2ccc(F)cc2)cc1` [화합물 20e, N-(4-메톡시벤질)-1-(4-플루오로페닐)-6-(메틸티오)-1H-피라졸로[3,4-d]피리미딘-4-아민]: the activity at 20 µM came to 235%.

Turning to `CSc1nc(NCc2ccc(C)cc2)c2cnn(-c3ccc(F)cc3)c2n1` [화합물 20f, N-(4-메틸벤질)-1-(4-프루오로페닐)-6-(메틸티오)-1H-피라졸로[3,4-d]피리미딘-4-아민], the activity at 20 µM came to 62 ± 3.8%.

Turning to `CSc1nc(NCc2ccccc2Cl)c2cnn(-c3ccc(C)cc3)c2n1` [화합물 21a, N-(2-클로로벤질)-6-(메틸티오)-1-p-톨릴-1H-피라졸로[3,4-d]피리미딘-4-아민], the activity at 20 µM stood at 37 ± 10.7%.

For `COc1ccccc1CNc1nc(SC)nc2c1cnn2-c1ccc(C)cc1` [화합물 21b, N-(2-메톡시벤질)-6-(메틸티오)-1-p-톨릴-1H-피라졸로[3,4-d]피리미딘-4-아민], the activity at 20 µM came to 44 ± 25.2%.

Consider `CSc1nc(NCc2ccccc2C)c2cnn(-c3ccc(C)cc3)c2n1` [화합물 21c, N-(2-메틸벤질)-6-(메틸티오)-1-p-톨릴-1H-피라졸로[3,4-d]피리미딘-4-아민], for which the activity at 20 µM is 47 ± 6.8%.

`COc1cccc(CNc2nc(SC)nc3c2cnn3-c2ccc(C)cc2)c1` [화합물 21d, N-(3-메톡시벤질)-6-(메틸티오)-1-p-톨릴-1H-피라졸로[3,4-d]피리미딘-4-아민]: the activity at 20 µM is 42 ± 5.2%.

For the molecule `COc1ccc(CNc2nc(SC)nc3c2cnn3-c2ccc(C)cc2)cc1` [화합물 21e, N-(4-메톡시벤질)-6-(메틸티오)-1-p-톨릴-1H-피라졸로[3,4-d]피리미딘-4-아민], the activity at 20 µM is 39 ± 3%.

With `CSc1nc(NCc2ccc(C)cc2)c2cnn(-c3ccc(C)cc3)c2n1` [화합물 21f, N-(4-메틸벤질)-6-(메틸티오)-1-p-톨릴-1H-피라졸로[3,4-d]피리미딘-4-아민], the activity at 20 µM stood at 49 ± 5.9%.

On to `CSc1nc(NC(c2ccccc2)c2ccc(Cl)cc2)c2cnn(-c3ccc(C)cc3)c2n1` (stereo not drawn) [화합물 21g, N-((4-클로로페닐)(페닐)메틸)-6-(메틸티오)-1-p-톨릴-1H-피라졸로[3,4-d]피리미딘-4-아민], for which the activity at 20 µM amounted to 79 ± 1.8%.

`CSc1nc(NC(C)C2CCCCC2)c2cnn(-c3ccc(C)cc3)c2n1` (stereo not drawn) [화합물 21h, N-(1-사이클로헥실에틸)-6-(메틸티오)-1-p-톨릴-1H-피라졸로[3,4-d]피리미딘-4-아민]: the activity at 20 µM was 73 ± 2.6%.

`CSc1nc(NC(C)c2ccc(C)cc2)c2cnn(-c3ccc(C)cc3)c2n1` (stereo not drawn) [화합물 21i, 6-(메틸티오)-1-p-톨릴-N-(1-p-톨릴에틸)-1H-피라졸로[3,4-d]피리미딘-4-아민]: the activity at 20 µM worked out at 57 ± 1%.

For `COc1ccc([C@H](C)Nc2nc(SC)nc3c2cnn3-c2ccc(C)cc2)cc1` [화합물 21j, N-((S)-1-(4-메톡시페닐)에틸)-6-(메틸티오)-1-p-톨릴-1H-피라졸로[3,4-d]피리미딘-4-아민], the activity at 20 µM is 52 ± 1.7%.

As to `C[S+]([O-])c1nc(NCc2ccccc2Cl)c2cnn(-c3ccccc3)c2n1` (stereo not drawn) [화합물 22a, N-(2-클로로벤질)-6-(메틸설파이닐)-1-페닐-1H-피라졸로[3,4-d]피리미딘-4-아민], the activity at 20 µM came out at 24 ± 12.9%.

For `COc1ccccc1CNc1nc([S+](C)[O-])nc2c1cnn2-c1ccccc1` (stereo not drawn) [화합물 22b, N-(2-메톡시벤질)-6-(메틸설파이닐)-1-페닐-1H-피라졸로[3,4-d]피리미딘-4-아민], the activity at 20 µM was 28 ± 4.1%.

As for `CCCCNc1nc([S+](C)[O-])nc2c1cnn2-c1ccccc1` (stereo not drawn) [화합물 22d, N-뷰틸-6-(메틸설파이닐)-1-페닐-1H-피라졸로[3,4-d]피리미딘-4-아민], the activity at 20 µM turned out to be 46 ± 8.3%.

`COc1ccccc1CNc1nc([S+](C)[O-])nc2c1cnn2-c1ccc(F)cc1` (stereo not drawn) [화합물 22e, N-(2-메톡시벤질)-1-(4-플루오로페닐)-6-(메틸설파이닐)-1-페닐-1H-피라졸로[3,4-d]피리미딘-4-아민]: the activity at 20 µM was determined as 31 ± 6.9%.

Take `COc1ccccc1CNc1nc([S+](C)[O-])nc2c1cnn2-c1ccc(C)cc1` (stereo not drawn) [화합물 22g, N-(2-메톡시벤질)-6-(메틸설파이닐)-1-p-톨릴-1H-피라졸로[3,4-d]피리미딘-4-아민]: the activity at 20 µM was determined as 42 ± 2.3%.

For the molecule `CC(Nc1nc([S+](C)[O-])nc2c1cnn2Cc1ccccc1)c1ccccc1` (stereo not drawn) [화합물 22h, 1-벤질-6-(메틸설파이닐)-N-(1-페닐에틸)-1H-피라졸로[3,4-d]피리미딘-4-아민], the “NO (% of LPS)” value is reported as 59±1.4 % of LPS.
